# pIC50: −log10 of the molar value.
# Tested on: 377384-186-R-J1-PDC complex spheroid viability
# Assay: Anticancer human tumor 377384-186-R-J1-PDC patient-derived pancreatic carcinoma cell line growth inhibition [RAS]
# Details: for pIC50: curve of first compound; for viability, T/C: stronger effect = lower value
# Text: RAS pathway inhibitors in Combinations in Complex Spheroids
# A high-throughput screen of multi-cell type tumor spheroids was designed to identify active combinations of RAS pathway inhibitors and targeted small molecules. Complex spheroids include a stromal component modeled by human endothelial cells (HUVEC) and fibroblasts modeled by human mesenchymal stem cells (MSCs). The concentration ranges selected for each drug and investigational agent were based upon clinically achievable concentrations if the clinical Cmax of the agent was known.
# Compounds. The drugs and investigational agents: abemaciclib (NSC768073), cobimetinib (NSC768068), divarasib (GDC6063, NSC841802), docetaxel (NSC628503), GDC-1971 (RLY-1971, NSC841576), gemcitabine (NSC613327), inavolisib (NSC800729), ipatasertib (NSC767898), KB-0742 (NSC834161), MRTX-1133 (NSC836407), osimertinib (NSC779217), RMC-4630 (NSC839698), RMC-6236 (NSC851965), RMC-6291 (NSC852671), Ro-3306 (NSC812927), sapanisertib (NSC764658), SN-38 (NSC673596), staurosporine (NSC755774), SY5609 (NSC837396), and tovorafenib (DAY101, NSC766906), were obtained from the National Cancer Institute (NCI) Developmental Therapeutics Program Chemical Repository. The FDA-approved anticancer drug set is available from the NCI Developmental Therapeutics Program. […] The stock solutions were prepared in dimethyl sulfoxide (DMSO, Sigma-Aldrich, St. Louis, MO, cat. D2650) at 800-fold the tested concentration and stored at -70 degrees C prior to their use. All drugs and investigational agents were tested over a range starting from a high concentration at or near the clinical Cmax and decreasing in half-log increments. If the clinical Cmax for an agent had not been determined, the highest concentration tested was 10 microM.
# Cell Culture. All cells were maintained in an incubator at 37 degrees C and 5% CO2 with 95% humidity. The PDC lines were cultured according to standard operating procedures established by the NCI PDMR. All PDCs were thawed and cultured in Matrigel-coated flasks prepared with a working solution of 1X Ham's F-12 nutrient mix, without supplementation (Invitrogen, Waltham, MA, cat. 11765054), 100 U/mL penicillin-streptomycin (Invitrogen, cat. 15140122), and 2.5% Matrigel (Corning Inc., Corning, NY, cat. 354248) for the first three passages. The 362531-283-R-J2-PDC and 782815-120-R-J1-PDC lines were cultured in 6C/Colon 1B media, which includes advanced DMEM/F-12 (Thermo Fisher Scientific, cat. 12634028), 10 mM HEPES (Thermo Fisher Scientific, cat. 15630080), 1X GlutaMAX supplement (Thermo Fisher Scientific, cat. 35050061), 0.1 mg/mL primocin (InvivoGen, San Diego, CA, cat. ant-pm-2), 10% defined fetal bovine serum, heat inactivated (HyClone Laboratories Inc., Logan, UT, cat. SH30070.03HI), 50% L-WRN conditioned media (ATCC, cat. CRL-3276), 1.25 mM N-Acetyl-L-cysteine (Sigma-Aldrich, cat. A9165), 10 mM nicotinamide (Sigma-Aldrich, cat. N0636), 1X B-27 supplement (Thermo Fisher Scientific, cat. 17504044), 1X N-2 supplement (Thermo Fisher Scientific, cat. 17502048), 50 ng/mL human EGF (Thermo Fisher Scientific, cat. PHG0311), and 10 microM Y-27632 dihydrochloride (Tocris Bioscience, cat. 1254). The K12877-001-R-J1-PDC line was cultured in 6I media, which includes all 6C/Colon 1B media plus 10 ng/mL human FGF-10 (PeproTech, cat. 100-26), 1 ng/mL human FGF-2 (PeproTech, cat. 100-18B), 1 µM prostaglandin E2 (Tocris Bioscience, cat. 2296), […] hydrocortisone (Sigma-Aldrich, cat. H4001), and […] bovine insulin (Sigma-Aldrich, cat. I6634). The K86415-001-R-J1-PDC line was cultured in 6D media, which includes all 6C/Colon 1B media components minus the L-WRN conditioned media. The 485176-168-R4-J1-PDC was cultured in PANC media, which includes all 6C/Colon 1B media plus 100 ng/mL human FGF-10 (PeproTech, cat. 100-26), 500 nM SB-431542 (Selleckchem, cat. S1067), and 10 nM gastrin (Tocris Bioscience, cat. 3006). […]
# 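Also: spheroids exposed to compounds for seven days before readout.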
smiles,measurement,setting,value
C=CC(=O)Nc1cc(Nc2nccc(-c3cn(C)c4ccccc34)n2)c(OC)cc1N(C)CCN(C)C + C#Cc1c(F)ccc2cc(O)cc(-c3ncc4c(N5CC6CCC(C5)N6)nc(OCC56CCCN5CC(F)C6)nc4c3F)c12,pIC50,second compound 0.0316 µM,> 8.50
same,pIC50,second compound 0.1 µM,> 8.50
same,pIC50,second compound 0.316 µM,> 8.50
same,pIC50,second compound 1 µM,> 8.50
same,pIC50,second compound 3.16 µM,> 8.50
same,pIC50,second compound 10 µM,> 8.50
same,"viability, T/C","second compound 0.0316 µM, first compound 0.00316 µM",23.5%
same,"viability, T/C","second compound 0.0316 µM, first compound 0.01 µM",20.6%
same,"viability, T/C","second compound 0.0316 µM, first compound 0.0316 µM",15.2%
same,"viability, T/C","second compound 0.0316 µM, first compound 0.1 µM",11.2%
same,"viability, T/C","second compound 0.0316 µM, first compound 0.316 µM",3.98%
same,"viability, T/C","second compound 0.0316 µM, first compound 1 µM",2.32%
same,"viability, T/C","second compound 0.1 µM, first compound 0.00316 µM",11.5%
same,"viability, T/C","second compound 0.1 µM, first compound 0.01 µM",8.96%
same,"viability, T/C","second compound 0.1 µM, first compound 0.0316 µM",5.18%
same,"viability, T/C","second compound 0.1 µM, first compound 0.1 µM",3.75%
same,"viability, T/C","second compound 0.1 µM, first compound 0.316 µM",2.22%
same,"viability, T/C","second compound 0.1 µM, first compound 1 µM",2.24%
same,"viability, T/C","second compound 0.316 µM, first compound 0.00316 µM",8.47%
same,"viability, T/C","second compound 0.316 µM, first compound 0.01 µM",5.04%
same,"viability, T/C","second compound 0.316 µM, first compound 0.0316 µM",3.96%
same,"viability, T/C","second compound 0.316 µM, first compound 0.1 µM",2.43%
same,"viability, T/C","second compound 0.316 µM, first compound 0.316 µM",1.28%
same,"viability, T/C","second compound 0.316 µM, first compound 1 µM",1.33%
same,"viability, T/C","second compound 1 µM, first compound 0.00316 µM",3.67%
same,"viability, T/C","second compound 1 µM, first compound 0.01 µM",2.76%
same,"viability, T/C","second compound 1 µM, first compound 0.0316 µM",2.37%
same,"viability, T/C","second compound 1 µM, first compound 0.1 µM",1.47%
same,"viability, T/C","second compound 1 µM, first compound 0.316 µM",1.51%
same,"viability, T/C","second compound 1 µM, first compound 1 µM",1.43%
same,"viability, T/C","second compound 3.16 µM, first compound 0.00316 µM",1.79%
same,"viability, T/C","second compound 3.16 µM, first compound 0.01 µM",1.63%
same,"viability, T/C","second compound 3.16 µM, first compound 0.0316 µM",1.82%
same,"viability, T/C","second compound 3.16 µM, first compound 0.1 µM",1.41%
same,"viability, T/C","second compound 3.16 µM, first compound 0.316 µM",1.37%
same,"viability, T/C","second compound 3.16 µM, first compound 1 µM",1.25%
same,"viability, T/C","second compound 10 µM, first compound 0.00316 µM",1.63%
same,"viability, T/C","second compound 10 µM, first compound 0.01 µM",1.14%
same,"viability, T/C","second compound 10 µM, first compound 0.0316 µM",1.21%
same,"viability, T/C","second compound 10 µM, first compound 0.1 µM",0.66%
same,"viability, T/C","second compound 10 µM, first compound 0.316 µM",1.89%
same,"viability, T/C","second compound 10 µM, first compound 1 µM",0.82%
NC1c2ccccc2OC12CCN(c1cnc3c(N4CCCc5ncccc54)n[nH]c3n1)CC2 (centres undefined) + CCn1c(-c2cccnc2C(C)OC)c2c3cc(ccc31)N1CCOC(CC(NC(=O)C(C(C)C)N(C)C(=O)C3(F)CCN(C(=O)C#CC(C)(C)N(C)C)CC3)C(=O)N3CCCC(N3)C(=O)OCC(C)(C)C2)C1,pIC50,second compound 0.000949 µM,< 5.00
same,pIC50,second compound 0.003 µM,< 5.00
same,pIC50,second compound 0.00949 µM,< 5.00
same,pIC50,second compound 0.03 µM,< 5.00
same,pIC50,second compound 0.0949 µM,< 5.00
same,pIC50,second compound 0.3 µM,< 5.00
same,"viability, T/C","second compound 0.000949 µM, first compound 0.0316 µM",106%
same,"viability, T/C","second compound 0.000949 µM, first compound 0.1 µM",97.5%
same,"viability, T/C","second compound 0.000949 µM, first compound 0.316 µM",88.2%
same,"viability, T/C","second compound 0.000949 µM, first compound 1 µM",82.3%
same,"viability, T/C","second compound 0.000949 µM, first compound 3.16 µM",84.3%
same,"viability, T/C","second compound 0.000949 µM, first compound 10 µM",84.3%
same,"viability, T/C","second compound 0.003 µM, first compound 0.0316 µM",98.8%
same,"viability, T/C","second compound 0.003 µM, first compound 0.1 µM",86.1%
same,"viability, T/C","second compound 0.003 µM, first compound 0.316 µM",82.2%
same,"viability, T/C","second compound 0.003 µM, first compound 1 µM",79.9%
same,"viability, T/C","second compound 0.003 µM, first compound 3.16 µM",93.3%
same,"viability, T/C","second compound 0.003 µM, first compound 10 µM",67.4%
same,"viability, T/C","second compound 0.00949 µM, first compound 0.0316 µM",97.3%
same,"viability, T/C","second compound 0.00949 µM, first compound 0.1 µM",84.3%
same,"viability, T/C","second compound 0.00949 µM, first compound 0.316 µM",84.5%
same,"viability, T/C","second compound 0.00949 µM, first compound 1 µM",73.8%
same,"viability, T/C","second compound 0.00949 µM, first compound 3.16 µM",89.8%
same,"viability, T/C","second compound 0.00949 µM, first compound 10 µM",76.1%
same,"viability, T/C","second compound 0.03 µM, first compound 0.0316 µM",102%
same,"viability, T/C","second compound 0.03 µM, first compound 0.1 µM",84.4%
same,"viability, T/C","second compound 0.03 µM, first compound 0.316 µM",70.6%
same,"viability, T/C","second compound 0.03 µM, first compound 1 µM",86%
same,"viability, T/C","second compound 0.03 µM, first compound 3.16 µM",79.2%
same,"viability, T/C","second compound 0.03 µM, first compound 10 µM",68.1%
same,"viability, T/C","second compound 0.0949 µM, first compound 0.0316 µM",75.6%
same,"viability, T/C","second compound 0.0949 µM, first compound 0.1 µM",82.6%
same,"viability, T/C","second compound 0.0949 µM, first compound 0.316 µM",81%
same,"viability, T/C","second compound 0.0949 µM, first compound 1 µM",69.3%
same,"viability, T/C","second compound 0.0949 µM, first compound 3.16 µM",74%
same,"viability, T/C","second compound 0.0949 µM, first compound 10 µM",71.9%
same,"viability, T/C","second compound 0.3 µM, first compound 0.0316 µM",67.6%
same,"viability, T/C","second compound 0.3 µM, first compound 0.1 µM",60.1%
same,"viability, T/C","second compound 0.3 µM, first compound 0.316 µM",59.4%
same,"viability, T/C","second compound 0.3 µM, first compound 1 µM",63.1%
same,"viability, T/C","second compound 0.3 µM, first compound 3.16 µM",70.9%
same,"viability, T/C","second compound 0.3 µM, first compound 10 µM",59.9%

# Source: PubChem BioAssay AID2060903 (Molecular Pharmacology Branch, DTP, NCI, 2025)
